Data from patent US11555012B2 (Nimbus Artemis, Inc., priority 2018, dated 2023).
Read-outs that look alike come from different tables or passages of the source.

Experiments:
HepG2 cells [1] = experiment: ACLY HepG2 14C-Pyruvate incorporation assay with serum (IC50 Fatty Acid); format: cell-based; conditions: Homo sapiens, table title: with serum, column head: serum free, 96 well, read-out: ACLY HepG2 14C-Pyruvate Assay serum free IC50 FA 96 well (IC50)
From the text: Example 333. ACLY HepG2 ^14C-Pyruvate Incorporation Assay (IC50 Fatty Acid)
(§1) 5. […] 6. […] 7. […] 8. […] 9. Repeat the Step 8 10.

HepG2 cells [2] = conditions: Homo sapiens, HepG2, read-out: ACLY HepG2 14C-Pyruvate Assay serum free IC50 FA (IC50) [μM]
Procedure: ACLY HepG2 ^14C-Pyruvate Incorporation Serum-Free Assay (IC50 Fatty
The protocol of the assay (below) was followed:
(§2) After 48 hours, change medium with fresh growth medium.
(§3) After 18 hours, replaced medium using 0.5 mL fresh medium (5.5 mM Glucose, without FBS, 1% PS, without Pyruvate) containing Compounds or 0.5% DMSO, incubated at 37° C., 5% CO2 for 1 hour.
(§4) Add 3 μci of [14C]-pyruvate per well to the cell samples were incubated at 37° C., 5% CO2 for 5 hours.
Medium was removed and placed into a 15 mL centrifuge tube. Add 0.5 mL of 0.1M NaOH to each well and then transfer the cell lysates into the corresponding 15 mL centrifuge tubes. 1.0 mL of EtOH and 0.17 mL 50% KOH were added to 15 mL tubes containing medium and cell suspensions, then shaking tube gently. […] Saponification 15 mL tubes containing medium and cell suspensions were incubated at 90° C. for 1 hour, then cooled to room temperature. […] Cholesterol Extraction 5 mL of petroleum ether was added per tube to extract Cholesterol, shaken vigorously, centrifuged at 1000 rpm for 5 min, and ˜5 mL of the petroleum ether layer was transferred to a new glass tube (18*180 mm). […] Acidification The samples in 15 mL tube were acidified directly with 1 mL concentrated HCl, make sure pH was below 1. […] Fatty Acids Extraction 5 mL of petroleum ether was added per tube, shaken vigorously, centrifuged at 1000 rpm for 5 min, 5 mL of the petroleum ether layer was transferred to the corresponding glass tube. […] Repeat the Step 8 10. Count The petroleum ether extracts were pooled and evaporated to dryness overnight. The residue from the petroleum ether fractions were resuspended in 500 μL of chloroform-hexane (1:1) containing 420 μg of linoleic acid as a carrier. Add 200 μL of resuspending (chloroform-hexane (1:1) containing 168 μg of linoleic acid) to 2 mL Ultima Gold™, after 30 min, count on a scintillation counter.

ACL [3] = target: T1, ACL (Homo sapiens (Human), UniProt P53396); experiment: ACLY-MDH Coupled Assay
Target sequence in this assay (P53396 whole entry, species assumed): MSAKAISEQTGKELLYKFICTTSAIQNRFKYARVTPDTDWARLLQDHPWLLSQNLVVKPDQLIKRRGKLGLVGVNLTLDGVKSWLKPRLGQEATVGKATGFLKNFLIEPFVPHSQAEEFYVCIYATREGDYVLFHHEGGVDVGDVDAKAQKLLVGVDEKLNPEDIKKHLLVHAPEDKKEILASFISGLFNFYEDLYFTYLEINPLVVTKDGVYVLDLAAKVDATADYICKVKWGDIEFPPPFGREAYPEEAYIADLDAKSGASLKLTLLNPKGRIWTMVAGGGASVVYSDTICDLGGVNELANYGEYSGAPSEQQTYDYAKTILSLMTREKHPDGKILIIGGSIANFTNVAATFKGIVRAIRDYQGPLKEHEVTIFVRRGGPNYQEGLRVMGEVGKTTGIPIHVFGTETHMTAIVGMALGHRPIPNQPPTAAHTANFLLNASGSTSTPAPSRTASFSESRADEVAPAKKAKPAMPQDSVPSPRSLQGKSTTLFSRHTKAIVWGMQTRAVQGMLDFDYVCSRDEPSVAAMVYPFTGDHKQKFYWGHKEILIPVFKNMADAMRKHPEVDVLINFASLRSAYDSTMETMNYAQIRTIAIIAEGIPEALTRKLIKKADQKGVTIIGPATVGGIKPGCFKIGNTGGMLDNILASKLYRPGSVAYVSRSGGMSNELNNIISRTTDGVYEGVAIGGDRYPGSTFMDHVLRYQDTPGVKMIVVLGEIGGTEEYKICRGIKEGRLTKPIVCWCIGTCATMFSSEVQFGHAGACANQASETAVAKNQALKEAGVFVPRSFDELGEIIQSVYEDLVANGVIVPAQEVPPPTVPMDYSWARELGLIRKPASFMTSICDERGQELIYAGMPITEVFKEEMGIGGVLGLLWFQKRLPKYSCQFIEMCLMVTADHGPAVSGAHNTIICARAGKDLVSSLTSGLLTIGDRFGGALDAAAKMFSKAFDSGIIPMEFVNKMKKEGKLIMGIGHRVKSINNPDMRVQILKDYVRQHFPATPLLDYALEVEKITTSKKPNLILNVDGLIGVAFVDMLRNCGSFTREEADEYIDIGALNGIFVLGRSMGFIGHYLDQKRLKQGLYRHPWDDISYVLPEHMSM
Procedure: Compounds of the present invention were evaluated in an ACLY Coupled Assay.
The assay protocol for the Coupled Assay (below) was followed:
b) Add 1 μL cpds to 96 assay plate, Test cpd conc: 100/30/10 μM top dose, 3 folds dilution, 10+0+control (control: buffer without ACL+DMSO) points, 1000 rpm for 1 min, incubation at 25° C. for 60 min

HepG2 cells [4] = experiment: ACLY HepG2 14C-Pyruvate incorporation assay with serum (IC50 Cholesterol); format: cell-based; conditions: Homo sapiens, table title: with serum, column head: serum free, 96 well
From the text: The protocol below was followed:
as §1

HepG2 cells [5] = conditions: Homo sapiens, HepG2, read-out: ACLY HepG2 14C-Pyruvate Assay serum free IC50 Cholesterol (IC50) [μM]
Procedure: ACLY HepG2 ^14C-Pyruvate Incorporation Serum-Free Assay (IC50 Cholesterol and Fatty Acid Synthesis)
Compounds of the present invention were evaluated in a HepG2 ^14C-pyruvate incorporation assay. The protocol below was followed:
as §2, §3, §4
Medium was removed and placed into a 15 mL centrifuge tube. Add 0.5 mL of 0.1M NaOH to each well and then transfer the cell lysates into the corresponding 15 mL centrifuge tubes. 1.0 mL of EtOH and 0.17 mL 50% KOH were added to 15 mL tubes containing medium and cell suspensions, then shaking tube gently. […] Saponification 15 mL tubes containing medium and cell suspensions were incubated at 90° C. for 1 hour, then cooled to room temperature. […] Cholesterol Extraction 5 mL of petroleum ether was added per tube to extract Cholesterol, shaken vigorously, centrifuged at 1000 rpm for 5 min, and ˜5 mL of the petroleum ether layer was transferred to a new glass tube (18*180 mm). […] Acidification The samples in 15 mL tube were acidified directly with 1 mL concentrated HCl, make sure pH was below 1. […] Fatty Acids Extraction 5 mL of petroleum ether was added per tube, shaken vigorously, centrifuged at 1000 rpm for 5 min, 5 mL of the petroleum ether layer was transferred to the corresponding glass tube. […] Count The petroleum ether extracts were pooled and evaporated to dryness overnight. The residue from the petroleum ether fractions were resuspended in 500 μL of chloroform-hexane (1:1) containing 420 μg of linoleic acid as a carrier. Add 200 μL of resuspending (chloroform-hexane (1:1) containing 168 μg of linoleic acid) to 2 mL Ultima Gold™, after 30 min, count on a scintillation counter.

ACL [6] = target: T1, ACL; experiment: ADP-Glo Assay
Target sequence in this assay (P53396 other isoform, or with tags, fused parts or gaps isoform P53396-2): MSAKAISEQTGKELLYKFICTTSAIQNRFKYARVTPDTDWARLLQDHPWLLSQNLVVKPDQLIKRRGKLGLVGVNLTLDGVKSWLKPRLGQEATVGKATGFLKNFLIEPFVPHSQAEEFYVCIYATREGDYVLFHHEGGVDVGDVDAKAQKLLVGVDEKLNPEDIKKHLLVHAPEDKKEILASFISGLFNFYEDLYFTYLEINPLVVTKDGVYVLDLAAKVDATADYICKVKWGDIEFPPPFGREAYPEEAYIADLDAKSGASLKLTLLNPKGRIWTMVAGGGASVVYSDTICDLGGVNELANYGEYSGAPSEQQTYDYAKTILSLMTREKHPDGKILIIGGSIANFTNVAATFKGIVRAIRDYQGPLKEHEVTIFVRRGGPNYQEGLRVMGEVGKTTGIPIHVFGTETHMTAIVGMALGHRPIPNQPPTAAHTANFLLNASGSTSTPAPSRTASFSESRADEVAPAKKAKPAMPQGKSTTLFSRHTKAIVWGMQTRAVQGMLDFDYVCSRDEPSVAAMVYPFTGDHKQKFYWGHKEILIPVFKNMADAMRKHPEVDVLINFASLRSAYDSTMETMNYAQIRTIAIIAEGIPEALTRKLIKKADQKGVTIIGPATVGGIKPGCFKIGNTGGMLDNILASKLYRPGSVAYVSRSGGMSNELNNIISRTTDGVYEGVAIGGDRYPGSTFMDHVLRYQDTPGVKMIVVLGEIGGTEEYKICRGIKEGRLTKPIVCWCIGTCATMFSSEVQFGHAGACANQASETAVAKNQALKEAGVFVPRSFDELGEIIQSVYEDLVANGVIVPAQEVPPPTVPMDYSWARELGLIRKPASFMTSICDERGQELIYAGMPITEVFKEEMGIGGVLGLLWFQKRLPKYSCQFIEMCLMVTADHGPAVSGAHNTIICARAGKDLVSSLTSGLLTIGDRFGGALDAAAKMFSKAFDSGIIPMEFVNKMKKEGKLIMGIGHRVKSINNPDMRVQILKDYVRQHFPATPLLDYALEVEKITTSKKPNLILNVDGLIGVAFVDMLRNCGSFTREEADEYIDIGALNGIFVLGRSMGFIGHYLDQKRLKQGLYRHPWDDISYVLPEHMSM

[7] = read-out: ACL-MDH Coupled Assay (IC50), 8 nM ACL, 60 μM CoA Na2, 85 μM Citrate, 250 μM ATP, 250 μM NADH
[8] = read-out: ACL-ADP-Glo (IC50), 3 nM ACL, 15 μM ATP, 3 μM CoA, 300 μM Citrate

| Structure (SMILES) | IC50 (HepG2 cells [1]) | IC50 (HepG2 cells [2]) | IC50 (ACL [3]) | IC50 (HepG2 cells [4]) | IC50 (HepG2 cells [5]) | IC50 (ACL [6]) | IC50 (ACL [3]; [7]) | IC50 (ACL [6]; [8]) |
| --- | --- | --- | --- | --- | --- | --- | --- | --- |
| O=C(O)c1ccc(-c2ccccc2)cc1NS(=O)(=O)c1cc(Cl)cc(C(F)(F)F)c1 [I-220, 3-((3-chloro-5-(trifluoromethyl)phenyl)sulfonamido)-[1,1′-biphenyl]-4-carboxylic acid] | 1 to 5 µM | 1 to 10 µM | 0.05 to 0.5 µM | 1 to 5 µM | 1 to 5 µM | 0.05 to 0.5 µM |  |  |
| O=S(=O)(Nc1cc(-c2ccccc2)c(F)cc1F)c1cc(-c2cncs2)cc(Cl)c1O [I-123, 3-chloro-N-(4,6-difluoro-[1,1′-biphenyl]-3-yl)-2-hydroxy-5-(thiazol-5-yl)benzenesulfonamide] | 1 to 5 µM | 1 to 10 µM |  | < 1 µM | < 1 µM |  | < 0.05 µM | < 0.05 µM |
| O=S(=O)(Nc1cc(-c2ccccc2)c(F)cc1F)c1cc(Br)cc(Cl)c1O [I-88, 5-bromo-3-chloro-N-[4,6-difluoro-[1,1-biphenyl]-3-yl]-2-hydroxybenzene-1-sulfonamide] |  | > 10 µM |  |  | 1 to 5 µM |  | < 0.05 µM | < 0.05 µM |
| O=C(Nc1cc(-c2ccccc2)ccc1C(=O)O)c1cc(Cl)cc(C(F)(F)F)c1 [I-349, 3-(3-chloro-5-(trifluoromethyl)benzamido)-[1,1′-biphenyl]-4-carboxylic Acid] |  | 1 to 10 µM | 0.5 to 30 µM |  | 1 to 5 µM | 0.5 to 20 µM |  |  |
| O=C(O)c1ccc(-c2ccccc2)cc1NS(=O)(=O)c1cccc(-n2cnnn2)c1 [I-372] |  | > 10 µM | 0.5 to 30 µM |  | 1 to 5 µM | 0.5 to 20 µM |  |  |
| COc1c(Cl)cc(C(F)(F)F)cc1S(=O)(=O)Nc1cc(-c2ccccc2)ccc1C(=O)O [I-296, 3-((3-chloro-2-methoxy-5-(trifluoromethyl)phenyl)sulfonamido)-[1,1′-biphenyl]-4-carboxylic Acid] |  | 1 to 10 µM | 0.05 to 0.5 µM |  | 1 to 5 µM | 0.05 to 0.5 µM |  |  |
| O=C(c1cc(Cl)c(O)c(S(=O)(=O)Nc2cc(-c3cc4ccccc4s3)c(F)cc2F)c1)N1CCC1 [I-138, 5-(azetidine-1-carbonyl)-N-[5-(1-benzothiophen-2-yl)-2,4-difluorophenyl]-3-chloro-2-hydroxybenzene-1-sulfonamide] |  | 1 to 10 µM |  |  | 1 to 5 µM |  | < 0.05 µM | < 0.05 µM |
| COC(=O)c1cc(Cl)c(O)c(S(=O)(=O)Nc2cc(-c3ccccc3)c(F)cc2F)c1C [I-126, Methyl 5-chloro-3-([4,6-difluoro-[1,1-biphenyl]-3-yl]sulfamoyl)-4-hydroxy-2-methylbenzoate] |  | 1 to 10 µM | 0.05 to 0.5 µM |  | 1 to 5 µM |  |  | < 0.05 µM |
| CON(C)C(=O)c1cc(Cl)c(O)c(S(=O)(=O)Nc2cc(-c3ccccc3)c(F)cc2F)c1 [I-87, 3-chloro-5-[(2,4-difluoro-5-phenylphenyl)sulfamoyl]-4-hydroxy-N-methoxy-N-methylbenzamide] |  | > 10 µM |  |  | 1 to 5 µM |  | < 0.05 µM | < 0.05 µM |
| CCOc1c(Cl)cc(Cl)cc1S(=O)(=O)Nc1cc(-c2ccccc2)ccc1C(=O)O [I-348, 3-((3,5-dichloro-2-ethoxyphenyl)sulfonamido)-[1,1′-biphenyl]-4-carboxylic Acid] |  | 1 to 10 µM | 0.05 to 0.5 µM |  | 1 to 5 µM | 0.05 to 0.5 µM |  |  |
| O=S(=O)(NC(c1ccccc1)c1ccccc1)c1cc(Cl)cc(Cl)c1O [I-16, N-benzhydry1-3,5-dichloro-2-hydroxybenzenesulfonamide] |  | 1 to 10 µM | 0.5 to 30 µM |  | 1 to 5 µM | 0.5 to 20 µM |  |  |
| O=S(=O)(c1cc(Cl)cc(Br)c1O)N(Cc1ccccc1)c1cc(-c2ccccc2)ccc1F [I-36, N-benzyl-3-bromo-5-chloro-N-(4-fluoro-[1,1′-biphenyl]-3-yl)-2-hydroxybenzenesulfonamide] |  | 1 to 10 µM | 0.5 to 30 µM |  | 1 to 5 µM | 0.5 to 20 µM |  |  |
| O=C(O)c1ccc(C2CC2)cc1NS(=O)(=O)c1cc(Cl)cc(C(F)(F)F)c1 [I-344, 2-((3-chloro-5-(trifluoromethyl)phenyl)sulfonamido)-4-cyclopropylbenzoic acid] |  | 1 to 10 µM | 0.5 to 30 µM |  | 1 to 5 µM | 0.5 to 20 µM |  |  |
| CCC(=O)c1cc(Cl)c(O)c(S(=O)(=O)Nc2cc(-c3ccccc3)c(F)cc2F)c1 [I-101, 3-chloro-N-(2,4-difluoro-5-phenylphenyl)-2-hydroxy-5-propanoylbenzene-1-sulfonamide] |  | > 10 µM |  |  | < 1 µM |  | < 0.05 µM | < 0.05 µM |
| O=S(=O)(Nc1cc(-c2ccccc2)c(F)cc1F)c1cc(CN2CCC2)cc(Cl)c1O [I-272, 5-(azetidin-1-ylmethyl)-3-chloro-N-(4,6-difluoro-[1,1′-biphenyl]-3-yl)-2-hydroxybenzenesulfonamide] |  | > 10 µM | 0.5 to 30 µM |  | 1 to 5 µM | 0.5 to 20 µM |  |  |
| O=C(O)c1ccc(-c2ccccc2)cc1NS(=O)(=O)c1cc(Cl)cc(Cl)c1 [I-208, 3-((3,5-dichlorophenyl)sulfonamido)-[1,1′-biphenyl]-4-carboxylic Acid] |  | 1 to 10 µM | 0.05 to 0.5 µM |  | 1 to 5 µM | 0.05 to 0.5 µM |  |  |
| CC(C)C(=O)Oc1c(Cl)cc(-c2cncs2)cc1S(=O)(=O)Nc1cc(-c2ccccc2)c(F)cc1F [I-213, 2-chloro-6-(N-(4,6-difluoro-[1,1′-biphenyl]-3-yl)sulfamoyl)-4-(thiazol-5-yl)phenyl Isobutyrate] |  | 1 to 10 µM | 0.05 to 0.5 µM |  | 1 to 5 µM | 0.05 to 0.5 µM |  |  |
| O=C(Oc1c(Cl)cc(C(=O)N2CCC2)cc1S(=O)(=O)Nc1cc(-c2ccccc2)c(F)cc1F)C1CC1 [I-236, 4-(azetidine-1-carbonyl)-2-chloro-6-(N-(4,6-difluoro-[1,1′-biphenyl]-3-yl)sulfamoyl)phenyl cyclopropanecarboxylate] |  | > 10 µM | 0.05 to 0.5 µM |  | 1 to 5 µM |  |  | < 0.05 µM |
| O=C(O)c1cc(F)c(-c2ccccc2)cc1NS(=O)(=O)c1cc(Cl)cc(Cl)c1 [I-287, 5-((3,5-dichlorophenyl)sulfonamido)-2-fluoro-[1,1′-biphenyl]-4-carboxylic Acid] |  | 1 to 10 µM | 0.05 to 0.5 µM |  | 1 to 5 µM | 0.05 to 0.5 µM |  |  |
| N#Cc1cc(Cl)c(O)c(S(=O)(=O)Nc2cc(-c3ccccc3)ccc2F)c1 [I-31, 3-chloro-5-cyano-N-(4-fluoro-[1,1′-biphenyl]-3-yl)-2-hydroxybenzenesulfonamide] |  | > 10 µM | 0.05 to 0.5 µM |  | 1 to 5 µM |  |  | < 0.05 µM |
| O=c1[nH]cc(Cl)cc1S(=O)(=O)Nc1cc(-c2ccccc2)c(F)cc1F [I-298, 5-chloro-N-[4,6-difluoro-[1,1-biphenyl]-3-yl]-2-oxo-1,2-dihydropyridine-3-sulfonamide] |  | > 10 µM | 0.05 to 0.5 µM |  | 5 to 20 µM | 0.05 to 0.5 µM |  |  |
| O=S(=O)(Nc1cc(-c2ccccc2)ccc1F)c1cc(Cl)cc(Br)c1O [I-23, 3-bromo-5-chloro-N-(4-fluoro-[1,1′-biphenyl]-3-yl)-2-hydroxybenzenesulfonamide] |  | 1 to 10 µM | < 0.05 µM |  | 1 to 5 µM | 0.05 to 0.5 µM |  |  |
